According to patent publication US6461593B1, “Therapy with coenzyme Q10 to reduce subgingival microorganisms in patients with periodontal disease” (Biomedical and Clinical Research, priority 1992, dated 2002):
Values joined by “and” are separate entries in the source; they are usually repeats but may differ in a detail not shown here. Equal entries are not always repeated. “Also recorded” adds a separate entry of the source.

Experiments:
[1] = tested on: tumors induced by dibenzpyrene; conditions: cited from earlier work
[2] = tested on: motile rods; assay: Phase contrast microscopy of subgingival plaque: motile rods; assay type: in vivo, human
Method: (§1) Twenty-two systemically healthy patients with periodontal disease, 11 males and 11 females, ages 33 to 66, participated in this trial. These volunteers were treated orally with 100 mg of CoQ10 per day for two months. Informed consent forms were signed prior to the study. Periodontal examinations and peripheral blood analyses were made before and during the trial. During the trial, the patients were not provided any routine periodontal treatment, and the staff gave them no information about oral hygiene to the patients.
(§2) The gingival index (8) and plaque index (9) were criteria to assess to degrees of gingival inflammation and accumulation of plaque on the teeth, respectively. The periodontal pocket depth was measured in interdental regions of buccal gingiva. The deepest pocket which was measured before administration of CoQ10 was selected for direct examination of oral bacteria by a microscope. The subgingival plaques were obtained with a curette, and were then dispersed in physiological saline which contained 1% gelatin, and were then prepared for analysis by phase contrast microscopy. The biopsies were viewed by means of a DS/300 microscope system (Dental Scientific Systems, Inc., VA) at 400× magnification. […]

[3] = Periodontal pocket depth in patients with periodontal disease, oral CoQ10 trial; assay type: in vivo, human
Method: as §1
(§3) The gingival index (8) and plaque index (9) were criteria to assess to degrees of gingival inflammation and accumulation of plaque on the teeth, respectively. The periodontal pocket depth was measured in interdental regions of buccal gingiva. The deepest pocket which was measured before administration of CoQ10 was selected for direct examination of oral bacteria by a microscope. The subgingival plaques were obtained with a curette, and were then dispersed in physiological saline which contained 1% gelatin, and were then prepared for analysis by phase contrast microscopy. The biopsies were viewed by means of a DS/300 microscope system (Dental Scientific Systems, Inc., VA) at 400× magnification. Small spirochetes, large spirochetes, spinning rods, spiral rods, small gliding rods, large gliding rods and palisading rods were identified as based upon cellular morphology and active motility. The following scores were used in each category: 0, no bacterial cells; 1, 1-9 cells; 2, 10-39 cells; and 3, more than 40 cells.

[4] = tested on: spirochetes; assay: Phase contrast microscopy of subgingival plaque: spirochetes; assay type: in vivo, human
Method: as §1, §2

[5] = patients with AIDS and the AIDS-related complex; cited from earlier work
[6] = oral administration (ref 5); cited from earlier work
[7] = oral administration (ref 14); cited from earlier work
[8] = Blood CoQ10 level; assay type: in vivo, human
Method: as §1
(§4) About 3 ml of peripheral blood was drawn for determination of CoQ10 levels and the T4/T8 ratios. The determination of the COQ10 level was performed as described by Ye et al. (10). T4(CD4) and T8 (CD8) monoclonal antibodies were purchased from Coulter Immunology, Hialeah, Fla. The lymphocytes were stained according to the two-color fluorescence, and the flow cytometric analysis was performed on an Epics Profile cell sorter (Coulter Electronics Inc., Hileah, Fla.).The sample preparations and staining procedures were performed as described by Parker et al. (11).
(§5) A paired-t test was used for the statistical analysis of differences in the gingival index, the plaque index, the blood CoQ10 levels, and the T4/TS ratios before and after the administration. The Wilcoxson test was used to test scores in microscopic analysis.

[9] = tested on: subgingival microorganisms; assay: Phase contrast microscopy of subgingival plaque: total motile microorganisms; assay type: in vivo, human; design: key to Total subgingival microorganism score, 2 Months: 0 = no cells, 1 = 1-9, 2 = 10-39, 3 = >40 cells per category
Method: as §1, §2

[10] = Gingival index in patients with periodontal disease, oral CoQ10 trial; assay type: in vivo, human; design: Gingival Index, 2 Months: scale not given here
Method: as §1, §3, §5

[11] = tested on: Plasmodium berghei; conditions: mice infected with Plasmodium berghei; cited from earlier work
[12] = tested on: T4/T8 lymphocytes; assay: T4/T8 lymphocyte ratio in peripheral blood by flow cytometry; assay type: in vivo, human
Method: as §1, §4, §5

[13] = Plaque index in patients with periodontal disease, oral CoQ10 trial; assay type: in vivo, human; design: Plaque Index, 2 Months: scale not given here
Method: as §1, §3, §5

[14] = cited from earlier work
[15] = 22 patients, 100 mg orally for two months, p<0.01
[16] = individual patients, sum of category scores (0 no motile cells, 1 1-9, 2 10-39, 3 more than 40 cells per microscopic field), 100 mg/day orally
[17] = 22 patients, 100 mg orally for two months, p<0.001
[18] = individual patients (one line per ID #), 100 mg CoQ10 per day orally for 2 months
[19] = individual patients, peripheral blood, 100 mg CoQ10 per day orally

COC1=C(OC)C(=O)C(C/C=C(\C)CC/C=C(\C)CC/C=C(\C)CC/C=C(\C)CC/C=C(\C)CC/C=C(\C)CC/C=C(\C)CC/C=C(\C)CC/C=C(\C)CCC=C(C)C)=C(C)C1=O [CoQ10, coenzyme Q10]
Number of survivors ([1]; dibenzpyrene tumor model, mice): increase
Percentage of mice with tumors ([1]; mice susceptible to dibenzpyrene-induced tumors): reduction
Tumor size or number ([1]; mice that developed tumors): reduction
Change of motile rods [2, 15]: decreased; also recorded: significant reduction
Motile Rods score, 2 Months [2, 16]: 3 (5×) and 0 (7×) and 4 (2×) and 1 (3×) and 2 (3×) and 6 and 5
Change of pocket depth [3, 17]: decreased
Pocket Depth, 2 Months [3, 18]: 2.3 mm (3×) and 2.7 mm (2×) and 1.9 mm and 2.4 mm and 2.6 mm (3×) and 2.9 mm (2×) and 2.2 mm and 1.8 mm and 3.6 mm and 3.4 mm and 2.8 mm (2×) and 2.5 mm and 3.0 mm and 4.5 mm and 3.7 mm
Pocket Depth, 2 Months, Mean ([3]; mean of 22 patients, S.D. 0.6, before 3.0, p <0.001, 100 mg/day orally): 2.8 + mm
Change of spirochetes ([4]; 22 patients, 100 mg orally for two months, p<0.02): decreased; also recorded: significant reduction
Spirochetes score, 2 Months [4, 16]: 3 (8×) and 0 (7×) and 4 and 1 (3×) and 6 (2×) and 2
Host defense mechanisms [5]: enhanced
Oxygen utilization in inflamed human gingiva [6]: increase
Activities of the CoQ10-dependent enzymes in inflamed dog gingiva [7]: increase
CoQ10 levels in inflamed dog gingiva [7]: increase
Change of blood level of CoQ10 [8, 17]: increased in all of the patients
CoQ10 level, 2 months, Mean + S.D. ([8]; 22 patients, before 0.82 + 0.19, p <0.001): 1.75 + 0.37 ug/ml
CoQ10 level, 2 months [8, 19]: 1.60 µg/mL and 1.94 µg/mL and 1.59 µg/mL and 2.29 µg/mL and 2.39 µg/mL and 1.16 µg/mL and 1.99 µg/mL and 1.44 µg/mL and 2.37 µg/mL and 1.72 µg/mL and 2.22 µg/mL and 1.30 µg/mL and 2.10 µg/mL and 1.88 µg/mL and 1.65 µg/mL and 1.75 µg/mL and 1.74 µg/mL and 1.90 µg/mL and 1.55 µg/mL and 1.57 µg/mL and 1.26 µg/mL and 1.17 µg/mL
Total subgingival microorganism score, 2 Months ([9]; individual patients, motile rods plus spirochetes scores, 100 mg/day orally): 6 (6×) and 3 (4×) and 0 (4×) and 8 (3×) and 1 (2×) and 2 and 5 and 7
Patients in whom all motile microorganisms in the gingiva disappeared ([9]; of 22 patients, 100 mg orally for two months): 4/22 and four
Change of gingival index [10, 15]: decreased
Gingival Index, 2 Months [10, 18]: 0.5 (3×) and 0.7 (3×) and 0.1 (2×) and 0.2 (3×) and 0.3 (3×) and 1.0 (2×) and 1.4 (2×) and 1.1 and 1.3 and 0.4 and 0.8
Gingival Index, 2 Months, Mean ([10]; mean of 22 patients, S.D. 0.4, before 0.9, p <0.001, 100 mg/day orally): 0.6 +
Effectiveness of chloroquin [11]: potentiated
Parasitemia in the red blood cells [11]: reduced
Survival time [11]: prolonged
Survivors [11]: increased
Change of T4/T8 ratio [12, 17]: significantly increased
T4/T8 Ratio, 2 months, Mean + S.D. ([12]; 22 patients, before 2.9 + 1.0, p <0.001): 3.4 + 1.3
T4/T8 Ratio, 2 months [12, 19]: 2.3 and 3.1 and 2.8 (2×) and 4.9 and 3.5 and 4.0 and 1.9 and 2.7 and 7.1 and 3.7 and 2.0 (2×) and 6.2 and 2.9 and 3.2 (2×) and 3.9 and 3.4 and 2.4 and 3.6 and 3.8
Patients with evident increase of T4/T8 ratio ([12]; out of 22): 17 patients
Change of plaque index ([13]; 22 patients, 100 mg orally for two months): did not change; also recorded: no change
Plaque Index, 2 Months [13, 18]: 0.0 (5×) and 0.6 (3×) and 0.3 (2×) and 0.2 (4×) and 0.1 (4×) and 0.4 (3×) and 2.0
Plaque Index, 2 Months, Mean ([13]; mean of 22 patients, S.D. 0.4, before 0.3, not significant, 100 mg/day orally): 0.3 +
Gingival inflammation ([14]; earlier clinical trials (refs 2,3,5)): improvement
Periodontal pocket depth ([14]; earlier clinical trials (refs 2-5)): improvement
Tooth mobility ([14]; earlier clinical trials (refs 3-5)): improvement
